# Experimental data as given in US7569578B2, “Heterocyclic anti-migraine agents” (Bristol-Meyers Squibb Company, priority 2003, dated 2009).
# Target: T1, Human CGRP1 Receptor (Homo sapiens, UniProt O60894+Q16602)
# T1 construct: endogenous in cells; host or cells: SK-N-MC cells (membrane homogenate)
# Assay: CGRP Binding Assay ([125I]-CGRP radioligand displacement, SK-N-MC membrane homogenate)
# Conditions: not given
# Description: Tissue Culture. SK-N-MC cells were grown at 37° C. in 5% CO2 as a monolayer in medium consisting of MEM with Earle's salts and L-glutamine (Gibco) supplemented with 10% fetal bovine serum (Gibco).
# Cell Pellets. […] The cells were transferred from plates to polypropylene tubes (16×100 mm) and homogenized using a polytron. Homogenates were centrifuged at 32,000×g for 30 min. The pellets were resuspended in cold hypotonic lysis buffer with 0.1% mammalian protease inhibitor cocktail (Sigma) and assayed for protein concentration. The SK-N-MC homogenate was then aliquoted and stored at −80° C. until needed.
# Radioligand Binding Assay. The compounds of invention were solubilized and carried through serial dilutions using 100% DMSO. Aliquots from the compound serial dilutions were further diluted 25 fold into assay buffer (50 mM Tris-Cl pH 7.5, 5 mM MgCl2, 0.005% Triton X-100) and transferred (volume 50 μl) into 96 well assay plates. […] SK-N-MC pellets were thawed, diluted in assay buffer with fresh 0.1% mammalian protease inhibitor cocktail (Sigma), and homogenized again. SK-N-MC homogenate (5 μg/well) was added in a volume of 100 μl. The assay plates were then incubated at room temperature for 2 h. Assays were stopped by addition of excess cold wash buffer (20 mM Tris-Cl pH 7.5, 0.1% BSA) immediately followed by filtration over glass fiber filters (Whatman GF/B) previously soaked in 0.5% PEI. Non-specific binding was defined with 1 μM beta-CGRP. Protein bound radioactivity was determined using a gamma or scintillation counter.
# T1 sequence (Q16602 23-461): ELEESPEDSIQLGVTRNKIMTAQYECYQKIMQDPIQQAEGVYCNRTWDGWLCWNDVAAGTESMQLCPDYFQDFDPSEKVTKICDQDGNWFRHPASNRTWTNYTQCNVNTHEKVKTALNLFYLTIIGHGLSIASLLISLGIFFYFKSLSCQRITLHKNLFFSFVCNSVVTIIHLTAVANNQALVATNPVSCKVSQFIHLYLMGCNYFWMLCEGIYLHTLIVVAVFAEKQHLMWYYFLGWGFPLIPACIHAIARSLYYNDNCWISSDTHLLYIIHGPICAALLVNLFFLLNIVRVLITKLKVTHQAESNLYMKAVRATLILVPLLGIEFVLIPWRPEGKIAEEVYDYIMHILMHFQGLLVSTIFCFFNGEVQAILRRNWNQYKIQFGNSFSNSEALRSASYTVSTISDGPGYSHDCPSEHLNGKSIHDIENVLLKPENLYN
# T1 sequence (O60894 27-148): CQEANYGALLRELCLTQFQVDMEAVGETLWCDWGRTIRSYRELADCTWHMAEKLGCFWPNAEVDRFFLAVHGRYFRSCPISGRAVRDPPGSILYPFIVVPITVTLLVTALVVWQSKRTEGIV
row,Structure (SMILES),IC50 [nM]
1,"Cc1cc(CC(NC(=O)N2CCC(N3Cc4ccccc4NC3=O)CC2)c2nccn2Cc2ccccc2)cc2cn[nH]c12 (racemic) [Example 67, (±)-N-(1-(1-Benzyl-1H-imidazol-2-yl)-2-(7-methyl-1H-indazol-5-yl)ethyl)-4-(2-oxo-1,2-dihydroquinazolin-3(4H)-yl)piperidine-1-carboxamide]",< 10

# Same assay, conditions: [125I]-CGRP displacement, SK-N-MC homogenate, room temperature 2 h; read-out: Human CGRP1 Receptor IC50
row,IC50 [nM],Structure (SMILES)
1,< 10,"Cc1cc(CC(OC(=O)N2CCC(N3Cc4ccccc4NC3=O)CC2)c2cccc(Br)n2)cc2cn[nH]c12 (racemic) [Example 40, (±)-1-(6-Bromopyridin-2-yl)-2-(7-methyl-1H-indazol-5-yl)ethyl 4-(2-oxo-1,2-dihydroquinazolin-3(4H)-yl)piperidine-1-carboxylate]"
2,100 to 1000,"Cc1cc(CC(OC(=O)N2CCC(N3Cc4ccccc4NC3=O)CC2)c2cccc(=O)[nH]2)cc2cn[nH]c12 (racemic) [Example 42, (±)-2-(7-Methyl-1H-indazol-5-yl)-1-(6-oxo-1,6-dihydropyridin-2-yl)ethyl 4-(2-oxo-1,2-dihydroquinazolin-3(4H)-yl)piperidine-1-carboxylate]"
3,10 to 100,"Cc1cc(CC(OC(=O)N2CCC(N3Cc4cccc(F)c4NC3=O)CC2)c2cccc(CC(C)C)n2)cc2cn[nH]c12 (racemic) [Example 43, (±)-1-(6-Isobutylpyridin-2-yl)-2-(7-methyl-1H-indazol-5-yl)ethyl 4-(8-fluoro-2-oxo-1,2-dihydroquinazolin-3(4H)-yl)piperidine-1-carboxylate]"
4,< 10,"Cc1cc(CC(OC(=O)N2CCC(N3Cc4cccc(F)c4NC3=O)CC2)c2cccc(Cc3cc(F)cc(F)c3)n2)cc2cn[nH]c12 (racemic) [Example 44, (±)-1-(6-(3,5-Difluorobenzyl)pyridin-2-yl)-2-(7-methyl-1H-indazol-5-yl)ethyl 4-(8-fluoro-2-oxo-1,2-dihydroquinazolin-3(4H)-yl)piperidine-1-carboxylate]"
5,< 10,"Cc1cc(CC(OC(=O)N2CCC(N3Cc4cccc(F)c4NC3=O)CC2)c2cccc(C#N)n2)cc2cn[nH]c12 (racemic) [Example 45, (±)-1-(6-Cyanopyridin-2-yl)-2-(7-methyl-1H-indazol-5-yl)ethyl 4-(8-fluoro-2-oxo-1,2-dihydroquinazolin-3(4H)-yl)piperidine-1-carboxylate]"
6,< 10,"Cc1cc(CC(OC(=O)N2CCC(N3Cc4ccccc4NC3=O)CC2)c2cc(CO)ccn2)cc2cn[nH]c12 (racemic) [Example 46, (±)-1-(4-(Hydroxymethyl)pyridin-2-yl)-2-(7-methyl-1H-indazol-5-yl)ethyl 4-(2-oxo-1,2-dihydroquinazolin-3(4H)-yl)piperidine-1-carboxylate]"
7,< 10,"Cc1cc(CC(OC(=O)N2CCC(N3Cc4ccccc4NC3=O)CC2)c2cc(C=O)ccn2)cc2cn[nH]c12 (racemic) [Example 47, (±)-1-(4-Formylpyridin-2-yl)-2-(7-methyl-1H-indazol-5-yl)ethyl 4-(2-oxo-1,2-dihydroquinazolin-3(4H)-yl)piperidine-1-carboxylate]"
8,10 to 100,"Cc1cc(CC(OC(=O)N2CCC(N3Cc4ccccc4NC3=O)CC2)c2cc(C(=O)O)ccn2)cc2cn[nH]c12 (racemic) [Example 48, (±)-2-(2-(7-Methyl-H-indazol-5-yl)-1-(4-(2-oxo-1,2-dihydroquinazolin-3(4H)-yl)piperidine-1-carbonyloxy)ethyl)isonicotinic acid]"
9,< 10,"Cc1cc(CC(OC(=O)N2CCC(N3Cc4ccccc4NC3=O)CC2)c2cc(C(=O)N3CCCCC3)ccn2)cc2cn[nH]c12 (racemic) [Example 49, (±)-2-(7-Methyl-1H-indazol-5-yl)-1-(4-(piperidine-1-carbonyl)pyridin-2-yl)ethyl 4-(2-oxo-1,2-dihydroquinazolin-3(4H)-yl)piperidine-1-carboxylate]"
10,10 to 100,"Cc1cc(CC(NC(=O)N2CCC(N3Cc4ccccc4NC3=O)CC2)c2ncc[nH]2)cc2cn[nH]c12 (racemic) [Example 65, (±)-N-(1-(1H-Imidazol-2-yl)-2-(7-methyl-1H-indazol-5-yl)ethyl)-4-(2-oxo-1,2-dihydroquinazolin-3(4H)-yl)piperidine-1-carboxamide]"
11,< 10,"Cc1cc(CC(NC(=O)N2CCC(N3Cc4ccccc4NC3=O)CC2)c2nccn2C)cc2cn[nH]c12 (racemic) [Example 66, (±)-N-(1-(1-Methyl-1H-imidazol-2-yl)-2-(7-methyl-1H-indazol-5-yl)ethyl)-4-(2-oxo-1,2-dihydroquinazolin-3(4H)-yl)piperidine-1-carboxamide]"
12,< 10,"Cc1cc(CC(NC(=O)N2CCC(N3Cc4ccccc4NC3=O)CC2)c2nccn2Cc2cccc(F)c2)cc2cn[nH]c12 (racemic) [Example 68, (±)-N-(1-(1-(3-Fluorobenzyl)-1H-imidazol-2-yl)-2-(7-methyl-1H-indazol-5-yl)ethyl)-4-(2-oxo-1,2-dihydroquinazolin-3(4H)-yl)piperidine-1-carboxamide]"
13,< 10,"Cc1cc(CC(NC(=O)N2CCC(N3Cc4ccccc4NC3=O)CC2)c2nccn2Cc2cc(F)cc(F)c2)cc2cn[nH]c12 (racemic) [Example 69, (±)-N-(1-(1-(3,5-Difluorobenzyl)-1H-imidazol-2-yl)-2-(7-methyl-1H-indazol-5-yl)ethyl)-4-(2-oxo-1,2-dihydroquinazolin-3(4H)-yl)piperidine-1-carboxamide]"
14,< 10,"Cc1cc(CC(NC(=O)N2CCC(N3Cc4ccccc4NC3=O)CC2)c2nccn2CCc2ccccc2)cc2cn[nH]c12 (racemic) [Example 70, (±)-N-(2-(7-Methyl-1H-indazol-5-yl)-1-(1-phenethyl-1H-imidazol-2-yl)ethyl)-4-(2-oxo-1,2-dihydroquinazolin-3(4H)-yl)piperidine-1-carboxamide]"
15,< 10,"Cc1cc(CC(NC(=O)N2CCC(N3Cc4ccccc4NC3=O)CC2)c2nccn2Cc2ccccc2F)cc2cn[nH]c12 (racemic) [Example 71, (±)-N-(1-(1-(2-Fluorobenzyl)-1H-imidazol-2-yl)-2-(7-methyl-1H-indazol-5-yl)ethyl)-4-(2-oxo-1,2-dihydroquinazolin-3(4H)-yl)piperidine-1-carboxamide]"
16,< 10,"Cc1cc(CC(NC(=O)N2CCC(N3Cc4ccccc4NC3=O)CC2)c2nccn2Cc2ccc(F)cc2)cc2cn[nH]c12 (racemic) [Example 72, (±)-N-(1-(1-(4-Fluorobenzyl)-1H-imidazol-2-yl)-2-(7-methyl-1H-indazol-5-yl)ethyl)-4-(2-oxo-1,2-dihydroquinazolin-3(4H)-yl)piperidine-1-carboxamide]"
17,< 10,"Cc1cc(CC(NC(=O)N2CCC(N3Cc4ccccc4NC3=O)CC2)c2nccn2Cc2ccncc2)cc2cn[nH]c12 (racemic) [Example 73, (±)-N-(2-(7-Methyl-1H-indazol-5-yl)-1-(1-(pyridin-4-ylmethyl)-1H-imidazol-2-yl)ethyl)-4-(2-oxo-1,2-dihydroquinazolin-3(4H)-yl)piperidine-1-carboxamide]"

row,Structure (SMILES),IC50 [nM]
1,"Cc1cc(CC(OC(=O)N2CCC(N3Cc4ccccc4NC3=O)CC2)c2cccc(OC(C)(C)C)n2)cc2cn[nH]c12 (racemic) [Example 41, (±)-1-(6-tert-Butoxypyridin-2-yl)-2-(7-methyl-1H-indazol-5-yl)ethyl 4-(2-oxo-1,2-dihydroquinazolin-3(4H)-yl)piperidine-1-carboxylate]",100 to 1000
